Results taken from the NIST ThermoML archive (doi:10.1021/je800429j).
Numbers after ± are expanded uncertainties.

Conditions: 283.15 K; 101.33 kPa; Liquid; Pycnometric method

## CCCCCC(=O)OCC(COC(=O)CCCCC)(COC(=O)CCCCC)COC(=O)CCCCC [pentaerythritol tetrahexanoate]
  mass density: 1004.2 ± 1.6 kg/m3
